Species on record: Rattus norvegicus
Test: DrugMatrix - Regimen: Daily Repeat
Type: toxicity, organism-based, Sprague-Dawley
Design: regimen Daily Repeat, gender Male, age 6-8 weeks
Settings: in vivo, po, route oral GAVAGE, vehicle .5 % CMC; for BASOPHIL / EOSINOPHIL / ERYTHROCYTE COUNT / HEMATOCRIT / HEMOGLOBIN / LEUKOCYTE COUNT / LYMPHOCYTE / MEAN CORPUSCULAR HEMOGLOBIN / MEAN CORPUSCULAR HEMOGLOBIN CONCENTRATION / MEAN CORPUSCULAR VOLUME / MONOCYTE / NEUTROPHIL / PLATELET COUNT / ABSOLUTE BASOPHIL / ABSOLUTE EOSINOPHIL / ABSOLUTE LYMPHOCYTE / ABSOLUTE MONOCYTE / ABSOLUTE SEGMENTED NEUTROPHIL / NUCLEATED RED BLOOD CELLS: tissue Blood
[1] = 0 mg/kg, 72 h, dose level Control, time 3 day
[2] = 0 mg/kg, 72 h, tissue Plasma, dose level Control, time 3 day
[3] = 0 mg/kg, 120 h, dose level Control, time 5 day
[4] = 0 mg/kg, 120 h, tissue Plasma, dose level Control, time 5 day
[5] = 7 mg/kg, 72 h, dose level Low, time 3 day
[6] = 7 mg/kg, 72 h, tissue Plasma, dose level Low, time 3 day
[7] = 7 mg/kg, 120 h, dose level Low, time 5 day
[8] = 7 mg/kg, 120 h, tissue Plasma, dose level Low, time 5 day

For NC1=NC(=O)C(c2ccccc2)O1 (stereo unspecified) [PEMOLINE], which BASOPHIL [1] is on record?
The BASOPHIL was 0%.

And the EOSINOPHIL [1]?
Its EOSINOPHIL is 0.33%.

And the “ERYTHROCYTE COUNT” value [1]?
Its value is 6.03 x10E6/uL.

And the HEMATOCRIT [1]?
The HEMATOCRIT was 38.8%.

And the HEMOGLOBIN [1]?
The HEMOGLOBIN was 14.26 G/DL.

What about the “LEUKOCYTE COUNT” value [1] of the same molecule?
Its value is 10.64 x10E3/uL.

What about the LYMPHOCYTE [1] of the same molecule?
Its LYMPHOCYTE is 83.33%.

And the “MEAN CORPUSCULAR HEMOGLOBIN” value [1]?
The value was 23.64 pg.

And the “MEAN CORPUSCULAR HEMOGLOBIN CONCENTRATION” value [1]?
Its value is 36.74 G/DL.

And the “MEAN CORPUSCULAR VOLUME” value [1]?
Its value is 64.32 fL.

And the MONOCYTE [1]?
The MONOCYTE was 3.33%.

And the NEUTROPHIL [1]?
The NEUTROPHIL was 13%.

And the “PLATELET COUNT” value [1]?
Its value is 1264.4 x10E3/uL.

And the “ALANINE AMINOTRANSFERASE” value [2]?
Its value is 38.83 u/L.

What about the ALBUMIN [2] of the same molecule?
Its ALBUMIN is 3.55 G/DL.

And the “ALKALINE PHOSPHATASE” value [2]?
The value was 368.33 u/L.

And the “ASPARTATE AMINOTRANSFERASE” value [2]?
The value was 66.17 u/L.

And the “BLOOD UREA NITROGEN” value [2]?
Its value is 15.67 mg/dL.

And the CHLORIDE [2]?
The CHLORIDE was 104.33 MEQ/L.

What about the CHOLESTEROL [2] of the same molecule?
Its CHOLESTEROL is 76.5 mg/dL.

What about the “CREATINE PHOSPHOKINASE” value [2] of the same molecule?
The value was 166.83 u/L.

And the CREATININE [2]?
Its CREATININE is 0.52 mg/dL.

And the GLUCOSE [2]?
The GLUCOSE was 173.17 mg/dL.

What about the PHOSPHORUS [2] of the same molecule?
The PHOSPHORUS was 11.68 mg/dL.

And the POTASSIUM [2]?
Its POTASSIUM is 6.43 MEQ/L.

And the SODIUM [2]?
Its SODIUM is 149.5 MEQ/L.

What about the “TOTAL PROTEIN” value [2] of the same molecule?
Its value is 5.93 G/DL.

What about the BASOPHIL [3] of the same molecule?
The BASOPHIL was 0%.

And the EOSINOPHIL [3]?
The EOSINOPHIL was 0%.

What about the “ERYTHROCYTE COUNT” value [3] of the same molecule?
Its value is 5.88 x10E6/uL.

And the HEMATOCRIT [3]?
Its HEMATOCRIT is 37.87%.

And the HEMOGLOBIN [3]?
Its HEMOGLOBIN is 14.48 G/DL.

And the “LEUKOCYTE COUNT” value [3]?
Its value is 12.43 x10E3/uL.

And the LYMPHOCYTE [3]?
The LYMPHOCYTE was 84.17%.

And the “MEAN CORPUSCULAR HEMOGLOBIN” value [3]?
Its value is 24.65 pg.

What about the “MEAN CORPUSCULAR HEMOGLOBIN CONCENTRATION” value [3] of the same molecule?
The value was 38.25 G/DL.

What about the “MEAN CORPUSCULAR VOLUME” value [3] of the same molecule?
Its value is 64.47 fL.

What about the MONOCYTE [3] of the same molecule?
Its MONOCYTE is 4.33%.

And the NEUTROPHIL [3]?
Its NEUTROPHIL is 11.5%.

And the “PLATELET COUNT” value [3]?
Its value is 1182.33 x10E3/uL.

And the “ALANINE AMINOTRANSFERASE” value [4]?
The value was 38.67 u/L.

What about the ALBUMIN [4] of the same molecule?
Its ALBUMIN is 3.55 G/DL.

What about the “ALKALINE PHOSPHATASE” value [4] of the same molecule?
The value was 342.5 u/L.

And the “ASPARTATE AMINOTRANSFERASE” value [4]?
Its value is 63.33 u/L.

And the “BLOOD UREA NITROGEN” value [4]?
The value was 15.5 mg/dL.

What about the CHLORIDE [4] of the same molecule?
The CHLORIDE was 104 MEQ/L.

What about the CHOLESTEROL [4] of the same molecule?
The CHOLESTEROL was 75.5 mg/dL.

What about the “CREATINE PHOSPHOKINASE” value [4] of the same molecule?
The value was 142.5 u/L.

And the CREATININE [4]?
Its CREATININE is 0.62 mg/dL.

And the GLUCOSE [4]?
Its GLUCOSE is 165.17 mg/dL.

And the PHOSPHORUS [4]?
Its PHOSPHORUS is 10.87 mg/dL.

What about the POTASSIUM [4] of the same molecule?
Its POTASSIUM is 6.85 MEQ/L.

And the SODIUM [4]?
Its SODIUM is 150.17 MEQ/L.

And the “TOTAL PROTEIN” value [4]?
Its value is 5.93 G/DL.

And the “ABSOLUTE BASOPHIL” value [5]?
Its value is 0 CELLS/uL.

And the “ABSOLUTE EOSINOPHIL” value [5]?
The value was 0 CELLS/uL.

And the “ABSOLUTE LYMPHOCYTE” value [5]?
Its value is 8380 CELLS/uL.

And the “ABSOLUTE MONOCYTE” value [5]?
The value was 87.67 CELLS/uL.

What about the “ABSOLUTE SEGMENTED NEUTROPHIL” value [5] of the same molecule?
Its value is 732.33 CELLS/uL.

What about the BASOPHIL [5] of the same molecule?
Its BASOPHIL is 0%.

And the EOSINOPHIL [5]?
Its EOSINOPHIL is 0%.

And the “ERYTHROCYTE COUNT” value [5]?
The value was 5.42 x10E6/uL.

What about the HEMATOCRIT [5] of the same molecule?
The HEMATOCRIT was 34%.

What about the HEMOGLOBIN [5] of the same molecule?
The HEMOGLOBIN was 13.77 G/DL.

And the “LEUKOCYTE COUNT” value [5]?
The value was 9.2 x10E3/uL.

What about the LYMPHOCYTE [5] of the same molecule?
Its LYMPHOCYTE is 91.33%.

What about the “MEAN CORPUSCULAR HEMOGLOBIN” value [5] of the same molecule?
The value was 25.43 pg.

What about the “MEAN CORPUSCULAR HEMOGLOBIN CONCENTRATION” value [5] of the same molecule?
The value was 40.5 G/DL.

And the “MEAN CORPUSCULAR VOLUME” value [5]?
Its value is 62.87 fL.

And the MONOCYTE [5]?
The MONOCYTE was 1%.

And the NEUTROPHIL [5]?
Its NEUTROPHIL is 7.67%.

And the “NUCLEATED RED BLOOD CELLS” value [5]?
Its value is 0 /100WBC.

And the “PLATELET COUNT” value [5]?
Its value is 1245 x10E3/uL.

What about the “ALANINE AMINOTRANSFERASE” value [6] of the same molecule?
Its value is 52 u/L.

What about the ALBUMIN [6] of the same molecule?
The ALBUMIN was 4.3 G/DL.

And the “ALKALINE PHOSPHATASE” value [6]?
Its value is 415.33 u/L.

And the “ASPARTATE AMINOTRANSFERASE” value [6]?
The value was 90 u/L.

What about the “BLOOD UREA NITROGEN” value [6] of the same molecule?
Its value is 14 mg/dL.

What about the “CARBON DIOXIDE” value [6] of the same molecule?
The value was 32 mmol/L.

What about the CHLORIDE [6] of the same molecule?
Its CHLORIDE is 99.33 MEQ/L.

And the CHOLESTEROL [6]?
Its CHOLESTEROL is 78.67 mg/dL.

And the “CREATINE PHOSPHOKINASE” value [6]?
The value was 330.33 u/L.

What about the CREATININE [6] of the same molecule?
Its CREATININE is 0.25 mg/dL.

And the GLUCOSE [6]?
Its GLUCOSE is 141.33 mg/dL.

And the “LACTATE DEHYDROGENASE” value [6]?
The value was 168.67 u/L.

What about the LIPASE [6] of the same molecule?
Its LIPASE is 10.33 u/L.

What about the PHOSPHORUS [6] of the same molecule?
The PHOSPHORUS was 11.6 mg/dL.

And the POTASSIUM [6]?
The POTASSIUM was 6.56 MEQ/L.

What about the SODIUM [6] of the same molecule?
The SODIUM was 145.47 MEQ/L.

What about the “TOTAL BILIRUBIN” value [6] of the same molecule?
The value was 0.2 mg/dL.

And the “TOTAL PROTEIN” value [6]?
The value was 6.2 G/DL.

And the “URIC ACID” value [6]?
Its value is 1.03 mg/dL.

What about the “ABSOLUTE BASOPHIL” value [7] of the same molecule?
The value was 0 CELLS/uL.

What about the “ABSOLUTE EOSINOPHIL” value [7] of the same molecule?
Its value is 0 CELLS/uL.

And the “ABSOLUTE LYMPHOCYTE” value [7]?
Its value is 13324.33 CELLS/uL.

What about the “ABSOLUTE MONOCYTE” value [7] of the same molecule?
Its value is 202.67 CELLS/uL.

What about the “ABSOLUTE SEGMENTED NEUTROPHIL” value [7] of the same molecule?
The value was 1839.67 CELLS/uL.

What about the BASOPHIL [7] of the same molecule?
Its BASOPHIL is 0%.

What about the EOSINOPHIL [7] of the same molecule?
The EOSINOPHIL was 0%.

And the “ERYTHROCYTE COUNT” value [7]?
Its value is 5.15 x10E6/uL.

What about the HEMATOCRIT [7] of the same molecule?
Its HEMATOCRIT is 31.77%.

What about the HEMOGLOBIN [7] of the same molecule?
The HEMOGLOBIN was 12.83 G/DL.

What about the “LEUKOCYTE COUNT” value [7] of the same molecule?
The value was 15.37 x10E3/uL.

And the LYMPHOCYTE [7]?
Its LYMPHOCYTE is 86.67%.

And the “MEAN CORPUSCULAR HEMOGLOBIN” value [7]?
The value was 24.93 pg.

What about the “MEAN CORPUSCULAR HEMOGLOBIN CONCENTRATION” value [7] of the same molecule?
Its value is 40.47 G/DL.

And the “MEAN CORPUSCULAR VOLUME” value [7]?
The value was 61.63 fL.

What about the MONOCYTE [7] of the same molecule?
The MONOCYTE was 1.33%.

And the NEUTROPHIL [7]?
The NEUTROPHIL was 12%.

What about the “NUCLEATED RED BLOOD CELLS” value [7] of the same molecule?
Its value is 0 /100WBC.

What about the “PLATELET COUNT” value [7] of the same molecule?
Its value is 1293.33 x10E3/uL.

And the “ALANINE AMINOTRANSFERASE” value [8]?
Its value is 55.67 u/L.

And the ALBUMIN [8]?
The ALBUMIN was 4.1 G/DL.

What about the “ALKALINE PHOSPHATASE” value [8] of the same molecule?
Its value is 349 u/L.

What about the “ASPARTATE AMINOTRANSFERASE” value [8] of the same molecule?
The value was 73.67 u/L.

What about the “BLOOD UREA NITROGEN” value [8] of the same molecule?
The value was 18.33 mg/dL.

Reference: ChEMBL document CHEMBL3885881, “DrugMatrix”
